In a melting point compilation (Tetko et al.; mined from patent text by program, amines drawn as free bases though some values may be those of a salt):

| Structure (SMILES) | melting point |
| --- | --- |
| O=C(NCC#CCN1CCN(c2ncccn2)CC1)c1nsc2ccccc12 | 102 to 104 °C |
| Cc1cc(C)nc(OC(C(=O)O)C(O/C=C/Cc2ccccc2)(c2ccccc2)c2ccccc2)n1 (stereo not drawn) | 128 to 133 °C |
| Cn1c(-c2ccc(Br)cc2)c(OCCOc2ccc(C=C3SC(=O)NC3=O)cc2)c(=O)c2ccccc21 | 151 to 154 °C |
| Cn1c(=O)ccc2cnc(NCc3ccccc3)nc21 | 160 to 162 °C |
| Cc1nsc(-n2cc(C(=O)O)c(=O)c3cc(F)c(N4CCCC4)nc32)n1 | > 300 °C |
| Cc1nn(C)c2nc3ccccc3c(Cl)c12 | 127 to 129 °C |
| COc1ccccc1N1CCN(NC(=O)c2ccc(Cl)c(S(N)(=O)=O)c2)CC1 | 232 to 235 °C |
| CCCc1nn(CC)c(C(N)=O)c1N | 81 to 83 °C |
| CC(=CC#N)c1cccc2cc[nH]c12 | 88 to 90 °C |
| Cc1cccc(Cl)c1NS(=O)(=O)c1n[nH]c(NC=O)n1 | 291 to 300 °C |
| Cc1cc(C(N)=O)ncc1C(c1c(F)ccc(F)c1F)S(=O)(=O)c1ccc(C(F)(F)F)nc1 (stereo not drawn) | 237 to 238 °C |
| Cc1ccc(OCC(=O)O)c2c3c(C(N)=O)cccc3n(Cc3ccccc3)c12 | 253 to 254 °C |
| COC(=O)c1nc(Cl)nc(N)c1OC | 158 °C |
| CC(CCNc1cccc(-c2ccnc3c(C(=O)c4cccs4)cnn23)c1)CC(C)(C)C (stereo not drawn) | 81 to 85 °C |
| Cc1cc2nc3c4cc(Br)ccc4n(CCN(C)C)c3nc2cc1C | 146 to 147 °C |
| O=[N+]([O-])c1cc(O)ccc1/C=C/c1ccc(O)cc1 | 237 to 240 °C |
| CCCCCCCCCCCCCCOc1cc(OCCCCCCc2cccc(OCc3ccccc3)c2OCc2ccccc2)cc(C(=O)O)c1 | 75 to 77 °C |
| CCCC(CCC)(CC(=O)O)CC(=O)O | 107 °C |
| O=C(O)Cc1nc(-c2ccc(F)cc2)oc1-c1cccs1 | 208 to 209 °C |
| COc1cc(-c2cccc(Cl)c2)c2cc(C(O)(c3ccc(Cl)cc3)c3nnc(S)n3C)ccc2n1 (stereo not drawn) | > 260 °C |
| CCCc1c(OCCCOc2cccc3c2CCCC3)ccc2c1OC(CCC(O)CO)(CCC(O)CO)CC2=O (stereo not drawn) | 113 to 115 °C |
| CC(C)C[C@H](NC(=O)c1cc2ccccc2o1)C(=O)N[C@H]1CC[C@@H](C)N(S(=O)(=O)c2ccccn2)CC1=O | 151 to 153 °C |
| CC(C)(C)OC(=O)C12CC3CC(C1)CC(C(=O)OC(C)(C)C)(C3)C2 | 65 to 66 °C |
| COc1ccc(C=C=C(C)C(=O)O)cc1 | 105 to 108 °C |
| CC(=O)NC[C@H]1CN(c2ccc(-c3ncno3)c(F)c2)C(=O)O1 | 199 to 200 °C |

| Structure (SMILES) | melting point |
| --- | --- |
| CC(C)(Cn1c(N)nc2c(N)nc3ccccc3c21)NS(C)(=O)=O | > 230 °C |
| COc1ccc(-c2nc(Sc3ccc(F)cc3)[nH]c2-c2ccc(OC)cc2)cc1 | 106 °C |
| OC1c2ccccc2-c2[nH]nc(-c3ccccc3)c21 (stereo not drawn) | 269 to 272 °C |
| Cc1ccc2c(c1C)C(=O)CC2 | 43 to 44 °C |
| COC(=O)c1cc2cc([N+](=O)[O-])ccc2o1 | 168 °C |
| COCc1nc(-c2ccc(-c3cnc4[nH]c(=O)n(CC5CCOCC5)c4n3)cc2)n[nH]1 | 273 to 276 °C |
| COc1cc2nc(N3CCN(C(=O)CC(=O)c4ccccc4)CC3)nc(N)c2cc1OC | 214 to 215 °C |
| COc1cc2c(c(OC)c1)C1CCC3(C)C(OC(C)=O)CCC3C1CC2 (stereo not drawn) | 131 to 134 °C |
| O=C(O)COc1ccc2c(-c3ccccc3)noc2c1Cl | 219 to 221 °C |
| Cc1cc(C)c2ccc(S(=O)(=O)O)nc2n1 | > 280 °C |
| CC(C)(C)OC(=O)N1CC=C(c2ncccc2N)CC1 | 104 to 105 °C |
| CSc1ccc(-n2cnc3ccc(-c4nnc(N)o4)cc32)cc1 | 254 to 255 °C |
| C=C(C)COc1cc2c(c(C)c1C)N(C=O)CC2 | 81 to 83 °C |
| CC(=O)O[C@@H]1OCC[C@@H]1NC(=O)[C@H](CC(C)C)NS(=O)(=O)c1ccc(N)cc1 | 189 to 190 °C |
| CCOC(=O)c1ccc(-c2ccc(-c3ccc(OC)cc3)c(-c3ccc4c(c3)C(C)(C)CCC4(C)C)c2)cc1 | 112 to 115 °C |
| Cc1cc(O)c(C(C)(C)C)cc1SC(Sc1cc(C(C)(C)C)c(O)cc1C)Sc1cc(C(C)(C)C)c(O)cc1C | 204 to 205 °C |
| CCc1cc2c(c(CC)n1)CCC(=O)N2Cc1ccc(Oc2ccccc2CC(=O)O)cc1 | 122 to 124 °C |
| CCCCSc1cc(C(=O)O)cc(S(N)(=O)=O)c1Cl | 202 to 203 °C |
| COc1ccc(-n2c(C)nc3ccccc32)cc1 | 121 to 123 °C |
| CC(N)C(=O)Nc1coc2cc(NS(C)(=O)=O)c(Oc3ccccc3)cc2c1=O (stereo not drawn) | 111 to 113 °C |
| CC(C)CCNC(=NC#N)Nc1cccnc1 | 136 °C |
| CCOC(=O)Cc1c([N+](=O)[O-])cc([N+](=O)[O-])c2ccccc12 | 132 to 134 °C |
| CCCN(C1=C(O)CC(C2CCCC2)(C2CCCC2)OC1=O)c1cccc(NS(=O)(=O)c2ccccn2)c1 | 105 to 107 °C |
| CCOC(=O)c1c(Cn2cncn2)nc2sc3cnccc3c2c1-c1ccc(OC)c(OC)c1 | 172 to 174 °C |
| COc1cc2nc(N3CCc4c(cccc4C(=N)N4CCOCC4)C3)[nH]c(=O)c2cc1OC | 249 to 251 °C |

| Structure (SMILES) | melting point |
| --- | --- |
| Cn1ncc(-c2ccc3c(c2)c(C2=CCN(CCN4CCNC4=O)CC2)cn3-c2ccc(F)cc2)n1 | 175 to 177 °C |
| O=C(OCc1ccccc1)c1cc(Cl)nc(Cl)c1 | 39 to 41 °C |
| O=C(CCCCc1ccccc1)N[C@H](Cc1ccc(C(F)(F)F)cc1)[C@@H](O)c1ccc(F)cc1 (racemic) | 152 to 153 °C |
| CC1(c2cc(NC(=O)Nc3ccc(OCCN4CCOCC4)c4ccccc34)n(-c3ccccc3)n2)CCCCC1 | 147 to 149 °C |
| CC(C)Oc1cc(Oc2ccc(S(C)(=O)=O)cn2)cc2cc(C3=NCC(CCO)S3)[nH]c12 (stereo not drawn) | 172 to 173 °C |
| O=C1Nc2cccnc2Nc2ccccc21 | 278 to 280 °C |
| CSc1ccc2cccc(CCNC(=O)C3CC3)c2c1 | 96 to 98 °C |
| Cn1cc(Nc2nc(N3CCOCC3)nc(-n3c(C(F)F)nc4ccccc43)n2)cn1 | 225 to 226 °C |
| CC(CCCNc1ccccc1)C1CC=C2C3=C(CCC21C)C1(C)CCC(O)C(C)(C)C1CC3 (stereo not drawn) | 178 to 180 °C |
| CC(C)(C)c1cc(C(=O)NCCc2cccc([N+](=O)[O-])c2)cc(C(C)(C)C)c1O | 195 to 197 °C |
| CC(C)(C)C(NC(=O)c1ccc(Cl)cc1)NS(=O)(=O)Nc1cccnc1 (stereo not drawn) | 166 to 167 °C |
| CC(C(=O)O)c1cc(Cl)c(N2CCOCC2)cc1O (stereo not drawn) | 198 to 200 °C |
| CC(=O)OCc1ccc2oc(=O)c(C(=O)Oc3ccccc3C#N)cc2c1 | 181 to 183 °C |
| Cc1c(F)c(Br)cc2c1c(=O)c(C(=O)O)cn2C1CC1 | 237 to 239 °C |
| CC1(C)NCC(=O)N1CC(N)=O | 144 to 146 °C |
| O=C(O)CCN1C(=O)c2cccc(NC(=O)c3ccc(Cl)s3)c2C1=O | 194 °C |
| Cc1c(N2CC[C@H](NC(=O)OC(C)(C)C)C2)c(F)c(N)c2c(=O)c(C(=O)O)cn(C3CC3)c12 | 135 to 136 °C |
| O[C@@H]1c2ccccc2CC[C@H]1N1CCC(O)(c2ccccc2)CC1 (relative stereo) | 184 °C |
| O=C(CCNC(=O)n1cc(F)c(=O)[nH]c1=O)N1CCOCC1 | 178 to 180 °C |
| CS(=O)(=O)c1ccc(-n2nc(C(=O)N3CCOCC3)cc2-c2ccc(-c3ccco3)cc2)cc1F | 221 to 222 °C |
| CC(C)(C)c1ccc(/C=N/OCCCOc2ccc(CCC(=O)O)cc2)cc1 | 101 to 102 °C |
| O=c1ccn(Cc2ccccc2)c(=O)[nH]1 | 168 to 170 °C |
| CNc1ccc(N2CCOC2=O)cc1[N+](=O)[O-] | 192 °C |
| CC(C)(OCc1cc2cc(Cl)ccc2n1S(=O)(=O)c1ccc2ncsc2c1)C(=O)O | 74 °C |
| C[Si](C)(C)OC1(C#N)CCOc2c(Cl)cc(-c3ccccc3)cc21 (stereo not drawn) | 99 to 100 °C |

| Structure (SMILES) | melting point |
| --- | --- |
| Cc1c(C)c2c(c(C)c1NC(=O)c1ccc(C(=O)O)cc1)C(c1ccc(C(C)C)cc1)C(C)(C)O2 (stereo not drawn) | 258 to 261 °C |
| Cc1c(C)c2c(c(C)c1NC=O)CC(C)(CBr)O2 (stereo not drawn) | 157 to 158 °C |
| CN(C)c1ccccc1CS(=O)c1nccn1-c1ccc(N)cn1 (stereo not drawn) | 140 to 143 °C |
| OC1COC(c2ccccc2)OC1 (stereo not drawn) | 83 to 84 °C |
| COc1cc(OC)nc(C2OC(=O)c3ncccc32)n1 (stereo not drawn) | 167 to 168 °C |
| OC(CCCl)COc1ccc(F)cc1 (stereo not drawn) | 53 to 55 °C |
| C(=C1c2ccccc2-c2ccccc21)c1nc(COc2ccc(CCCn3ccnc3)cc2)co1 | 116 to 117 °C |
| Cc1oc(-c2ccccc2)nc1CCC(=O)c1ccc(Br)cc1 | 80 to 81 °C |
| O=C(CO)c1ccc(Cl)c(Cl)c1 | 115 to 118 °C |
| CN(C)C(=O)c1nn(-c2ccc(Cl)cc2)c(=O)c2c(N)scc12 | 242 to 244 °C |
| CC(=O)Oc1cccc2oc(C(=O)Nc3ccc(CC4SC(=O)NC4=O)cc3)cc(=O)c12 (stereo not drawn) | 257 to 260 °C |
| O=C(O)c1ccnc(-c2cccc3cc(Cc4cc(F)cc(Cl)c4)sc23)c1 | 205 to 206 °C |
| CCn1cc(C(=O)OCC(=O)O)c(=O)c2cc3c(cc21)OCO3 | 240 to 243 °C |
| CCCCC(=O)Nc1ccc(-c2cc3[nH]c(=O)[nH]c3nc2C)cc1 | > 300 °C |
| O=[N+]([O-])c1cc(CBr)cc(CBr)c1 | 100 to 101 °C |
| CN1CC23CC(c4ccccc4C2C1=O)c1ccccc13 (stereo not drawn) | 141 to 146 °C |
| CC(CCC(=O)C(C)(C)OO)C1CCC2C3CC=C4CC(OC5CCCCO5)CCC4(C)C3CCC12C (stereo not drawn) | 130 to 131 °C |
| COC(=O)C1=C(C)NC2(O)COC(=O)C2C1c1cccc([N+](=O)[O-])c1 (stereo not drawn) | 147 to 149 °C |
| CCN(CC)Cc1nc(-c2ncn3c2CN(C)C(=O)c2c(Cl)cccc2-3)no1 | 250 to 252 °C |
| CCCCOc1ccc(S(C)(=O)=O)cc1-c1nc2c(CC)n(CCN3CCOCC3)nc2c(=O)[nH]1 | 235 to 238 °C |
| CCC1CC2C3CCc4cc(OC)ccc4C3CCC2(CC)C1=O (stereo not drawn) | 101 to 102 °C |
| COc1cc(N2CCN(C3CCN(c4cccc5cccnc45)CC3)CC2)c2ncccc2c1 | 194 to 197 °C |
| COc1cc(C)ccc1S(=O)(=O)OCC(=O)c1ccccc1 | 89 °C |
